Publication PMC3272328 (2011)
Positions count from the first letter of the chain named.

What was measured:
Assay type in all cases: biochemical
soluble guanylyl cyclase [1] = target: T1, soluble guanylyl cyclase (Bos taurus, UniProt P16068+P19687); experiment: cGMP ELISA enzyme assay
T1 sequence (P16068 1-619): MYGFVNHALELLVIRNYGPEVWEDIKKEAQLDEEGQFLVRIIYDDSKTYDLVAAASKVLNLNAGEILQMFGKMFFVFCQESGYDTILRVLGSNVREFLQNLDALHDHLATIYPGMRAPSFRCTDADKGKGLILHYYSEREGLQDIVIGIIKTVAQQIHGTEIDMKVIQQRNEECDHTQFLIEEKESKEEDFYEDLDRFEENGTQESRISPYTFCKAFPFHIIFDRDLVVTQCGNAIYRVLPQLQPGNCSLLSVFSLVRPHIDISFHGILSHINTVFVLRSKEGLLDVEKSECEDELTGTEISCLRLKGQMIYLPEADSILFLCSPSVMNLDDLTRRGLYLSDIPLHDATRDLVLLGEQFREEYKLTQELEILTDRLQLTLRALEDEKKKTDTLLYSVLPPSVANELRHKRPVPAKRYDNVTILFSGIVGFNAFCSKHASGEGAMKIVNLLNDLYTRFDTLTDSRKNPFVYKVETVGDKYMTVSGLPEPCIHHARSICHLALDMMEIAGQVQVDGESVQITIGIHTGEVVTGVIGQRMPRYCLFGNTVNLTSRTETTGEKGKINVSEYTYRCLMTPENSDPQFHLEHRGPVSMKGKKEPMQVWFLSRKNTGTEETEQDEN
T1 sequence (P19687 1-691): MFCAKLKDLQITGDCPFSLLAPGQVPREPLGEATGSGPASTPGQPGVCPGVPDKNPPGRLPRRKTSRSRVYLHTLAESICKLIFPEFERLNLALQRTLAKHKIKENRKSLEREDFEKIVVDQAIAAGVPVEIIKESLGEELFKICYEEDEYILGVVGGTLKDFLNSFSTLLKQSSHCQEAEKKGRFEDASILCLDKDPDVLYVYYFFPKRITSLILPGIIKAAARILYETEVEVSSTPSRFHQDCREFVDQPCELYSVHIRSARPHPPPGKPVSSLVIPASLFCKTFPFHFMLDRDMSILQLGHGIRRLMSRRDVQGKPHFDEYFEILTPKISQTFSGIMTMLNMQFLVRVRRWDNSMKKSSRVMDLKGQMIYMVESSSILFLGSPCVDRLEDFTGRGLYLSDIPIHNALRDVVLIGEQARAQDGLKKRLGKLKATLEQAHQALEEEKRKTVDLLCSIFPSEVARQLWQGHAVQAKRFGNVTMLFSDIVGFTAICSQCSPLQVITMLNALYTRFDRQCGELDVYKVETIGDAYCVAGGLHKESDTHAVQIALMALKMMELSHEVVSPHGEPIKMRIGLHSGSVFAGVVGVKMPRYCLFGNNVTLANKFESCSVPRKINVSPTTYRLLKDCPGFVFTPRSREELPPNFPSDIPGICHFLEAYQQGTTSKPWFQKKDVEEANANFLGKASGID

soluble guanylyl cyclase [2] = target: T2, soluble guanylyl cyclase (Homo sapiens, UniProt Q02108+Q02153); experiment: cGMP ELISA enzyme assay
T2 sequence (Q02153 1-619): T1 sequence (P16068 1-619) with D126E, S290L, T574S, E615K, E618D, N619D
T2 sequence (Q02108 1-690): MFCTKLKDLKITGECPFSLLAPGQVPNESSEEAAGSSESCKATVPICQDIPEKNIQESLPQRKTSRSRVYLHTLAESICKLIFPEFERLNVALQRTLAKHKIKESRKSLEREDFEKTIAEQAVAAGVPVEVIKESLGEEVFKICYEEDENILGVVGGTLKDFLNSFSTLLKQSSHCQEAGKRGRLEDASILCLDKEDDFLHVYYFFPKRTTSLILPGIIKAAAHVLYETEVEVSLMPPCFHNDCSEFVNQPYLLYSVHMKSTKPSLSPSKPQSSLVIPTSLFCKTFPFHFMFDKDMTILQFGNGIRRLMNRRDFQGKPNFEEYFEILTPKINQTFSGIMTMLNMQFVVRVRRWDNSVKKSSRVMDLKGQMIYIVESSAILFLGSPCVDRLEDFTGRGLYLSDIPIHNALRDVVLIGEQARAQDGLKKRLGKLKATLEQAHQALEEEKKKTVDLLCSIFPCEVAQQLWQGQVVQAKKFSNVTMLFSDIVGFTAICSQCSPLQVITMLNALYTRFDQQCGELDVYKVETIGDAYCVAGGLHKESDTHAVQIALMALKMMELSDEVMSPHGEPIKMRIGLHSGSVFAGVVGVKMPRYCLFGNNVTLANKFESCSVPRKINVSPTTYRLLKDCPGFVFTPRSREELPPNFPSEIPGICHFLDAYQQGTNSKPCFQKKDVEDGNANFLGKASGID

soluble guanylyl cyclase [3] = target: T1, soluble guanylyl cyclase; experiment: cGMP production by ELISA at varied GTP

Ki (soluble guanylyl cyclase [1]) [µM] | SMILES | cGMP ELISA enzyme assay (soluble guanylyl cyclase [2]) | cGMP production by ELISA at varied GTP; Lineweaver-Burk plot (soluble guanylyl cyclase [3])
55 | Nc1nc(=O)c2ncn([C@H]3C=C[C@@H](COP(=O)(O)OP(=O)(O)OP(=O)(O)O)C3)c2[nH]1 [carbovir triphosphate] | able to inhibit the activity of purified soluble guanylyl cyclase (both purified native bovine enzyme and recombinant human enzyme) | 
 | Nc1nc2c(ncn2[C@@H]2O[C@H](COP(=O)(O)OP(=O)(O)OP(=O)(O)O)[C@@H](O)[C@H]2O)c(=O)[nH]1 [guanosine triphosphate] |  | we measured the amount of inhibition while varying the concentrations of GTP and carbovir triphosphate
